The subject of assay [1] is A2780 human ovarian carcinoma cells. The assay can be described thus: MTT cytotoxicity, 72 h. Type of assay: cell-based. The following applies: Homo sapiens, A2780; MTT, 72 h, octanoic acid.
The test system of assay [2] is A2780cisR human ovarian carcinoma cells. The assay can be described thus: MTT cytotoxicity, 72 h. Format: cell-based. The protocol:
(§1) Cytotoxic activity of the compounds tested in the present work was screened on the panel of malignant and nonmalignant cell lines using the colorimetric MTT assay and 72 h of drug incubation period.
(§2) Cell death was evaluated using a system based on the tetrazolium compound MTT [3-(4,5-dimethyl-2-thiazolyl)-2,5-diphenyl-2H-tetrazolium bromide]. The cells were seeded in 96-well tissue culture plates at a density of 10^4 A2780cisR, LNCaP, HSF cells/well, 3 × 10^3 CHO-K1 or 4 × 10^3 MCF7, HCT-116 and MRC5 pd30 cells/well in 100 μL of medium. After overnight incubation (16 h), the cells were treated with the compounds in a final volume of 200 μL/well. After additional 72 h, 10 μL of a freshly diluted MTT solution (2.5 mg mL^−1) was added to each well, and the plate was incubated at 37 °C in a humidified 5% CO2 atmosphere for 4 h. At the end of the incubation period, the medium was removed, and the formazan product was dissolved in 100 μL of DMSO. The cell viability was evaluated by measurement of the absorbance at 570 nm, using an Absorbance Reader SUNRISE TECAN SCHOELLER. IC50 values were calculated from curves constructed by plotting cell survival (%) versus drug concentration (μM). All experiments were made in triplicate. The reading values were converted to the percentage of control (% cell survival). Cytotoxic effects were expressed as IC50.

Assay [3] concerns CHO-K1 Chinese hamster ovary cells. The assay can be described thus: MTT cytotoxicity, 72 h. The conditions noted are these: Cricetulus griseus, CHO-K1, octanoic acid. Type of assay: cell-based. As to the method:
as §1, §2

Assay [4] has as its system HCT-116 human colorectal carcinoma cells. The assay can be described thus: MTT cytotoxicity, 72 h. Format: cell-based. The conditions noted are these: Homo sapiens, HCT-116; MTT, 72 h, octanoic acid. As to the method: as §1, §2
Assay [5] relates to HSF human primary skin fibroblasts. The assay can be described thus: MTT cytotoxicity, 72 h. Type of assay: cell-based. The conditions noted are these: Homo sapiens, Skin fibroblast, octanoic acid. The protocol:
as §1, §2

Assay [6] relates to LNCaP human prostate adenocarcinoma cells. The assay can be described thus: MTT cytotoxicity, 72 h. Type of assay: cell-based. The following applies: Homo sapiens, LNCaP, octanoic acid. As to the method: as §1, §2
Assay [7] has as its system MCF-7 human breast cancer cells. Description: MTT cytotoxicity, 72 h. Type of assay: cell-based. The conditions noted are these: octanoic acid. As to the method:
as §1, §2

Assay [8] relates to MRC-5 (PD30) human fetal lung fibroblasts. The assay can be described thus: MTT cytotoxicity, 72 h. Format: cell-based. The conditions noted are these: Homo sapiens, MRC5, octanoic acid. The protocol:
as §1, §2

The subject of another assay is PNT1a. Description: MTT cytotoxicity, 72 h. Type of assay: cell-based. The following applies: Homo sapiens, PNT1A, octanoic acid.
Assay [9] relates to HDAC enzymes in HCT-116 cells. The assay can be described thus: HDAC fluorimetric cellular activity assay. The conditions noted are these: 1 mM (1000-fold higher concentration). Format: cell-based, human. As to the method:
These epigenetic processes consist in downregulation of HDACs and yet other biochemical processes triggered by VPA released in cells by the reduction of the Pt(IV) prodrug. Moreover, it has also been shown[15] that non-branched MCFAs may act as HDAC inhibitors. […] HDAC activity was analyzed in HCT-116 cells and confirmed by an independent set of experiments on A2780 cells (data not shown) by using a commercial HDAC fluorimetric cellular activity kit as described in the section Materials and methods.
Figure 3 Activity of HDAC enzymes in HCT-116 cells treated with the compounds tested in the present work; their concentration was 1 µM except the concentration of free OA, which was 1 mM. […] The data represent a mean from three independent experiments, each performed in quadruplicate. The error bars are the SDs.
The activity of HDAC enzymes was analyzed in HCT-116 cells treated with compounds tested in the present work (1 µM). […] The activity of HDAC was analyzed using the HDAC fluorimetric cellular activity assay kit (Enzo Life Sciences; Farmingdale, NY) in the whole cells according to manufacturer’s instructions. […] The plates were scanned on a fluorescence reader Infinite 200 (TECAN) (360 nm excitation, 460 nm emission).

The test system of assay [10] is DNA methylation in HCT-116 cells. The assay can be described thus: DNA methylation analysis (Imprint methylated DNA quantification kit). Format: cell-based, human. The conditions noted are these: HCT-116, free OA at sufficiently high (milimolar) concentration. The protocol:
Human colon adenocarcinoma cells HCT-116 were chosen as the model cellular system suitable for DNA methylation analysis because: (i) this human colorectal cancer cell line has been used as a prototypic model for analyses of the genetic basis of cancer, and the role of epigenetic changes in tumorigenesis; (ii) they have a propensity to both global DNA hypomethylation and to silence genes through promoter focal hypermethylation, [21]. HCT-116 cells were treated with the compounds at the concentrations indicated in Fig. 4A for 24 or 72 h and DNA was isolated for the complete methylation analysis as described in the experimental section. Decitabine (5-aza-2′-deoxycytidine), a hypomethylating agent which hypomethylates DNA by inhibiting DNMT, was used in these experiments as a […]. The IC50 values found for this agent in HCT-116 cells (the drug-treatment period was 72 h) was (7.5 ± 0.3) µM (Table 1).
Figure 4 Analysis of DNA methylation. (A) DNA was isolated from HCT-116 cells after the exposure to the agents at the concentrations indicated in the graph for 24 or 72 h. The levels of DNA methylation in the control was taken as 100%. The bars represent mean values from three independent experiments each performed in octuplicate. The error bars are the SDs. (B) DNMT activity in colon carcinoma cells HCT-116 treated for 24 h with the compounds tested in the present work. The DNMT activity in the control, untreated cells was taken as 100%. Error bars are the SDs and the stars at the top of bars denote a significant difference from the control with (*p < 0.05; **p < […]), calculated using […] student’s t-test. The bars represent mean values from three independent experiments, each performed in quadruplicate.
Human colon carcinoma cells (HCT-116) were seeded at the density 1.5 × 10^6 cells/dish. […] The DNA content in each sample was determined by UV spectrophotometry. DNA (200 ng) from the samples was loaded to the Imprint methylated DNA quantification kit (Sigma-Aldrich, USA). The level of methylated DNA was proportional to the absorbance measured at 450 nm.

In assay [11] the test system is DNMT enzymes in HCT-116 cells. The assay can be described thus: DNMT activity in nuclear extracts of treated cells. Format: cell-based, human. The following applies: HCT-116, 1 (unit uncertain), 24 h. Set-up: unit of the concentration uncertain. As to the method:
In these experiments, the total activity of DNMT enzymes was determined in nuclear extracts prepared from HCT-116 cells which were treated with the platinum compounds, free OA or decitabine for 24 h (Fig. 4B).
Human colon carcinoma cells (HCT-116) were seeded in 100 mm culture dishes at the density 1.5 × 10^6 cells/dish. Cells were harvested after 24 h of incubation with the compounds tested in the present work (1 µM). Nuclear extracts from the pellets were separated using EpiQuik Nuclear extraction kit I (Epigentek, NY) according to manufacturer’s instructions. Quantification of nuclear proteins was analyzed with the standard Bradford assay. The activity of DNMT enzymes was analyzed using the EpiQuik DNMT activity/inhibition assay Ultra kit (Epigentek, NY), according to the manufacturer´s protocol. Briefly, 10 µg of total nuclear protein was analyzed for its DNMT activity. The reaction time with a universal DNMT substrate stably coated onto microplate wells was 120 min at 37 °C. The final signal at the end of the ELISA reaction was detected at 450 nm (reference 620 nm). DNMT activity was normalized to controls and expressed in the percent or absolute values as OD h^−1 mg^−1, calculated as described in the manufacturer’s manual.

The IC50 is the concentration at which inhibition is half-maximal. Turning to `CCCCCCCC(=O)O` [OA, octanoic acid, reference compound], the IC50 was found to be 1.46 ± 0.1 mM in assay [1]; 0.76 ± 0.02 mM in assay [2] (Homo sapiens, A2780cisR, MTT, 72 h, octanoic acid); 5.9 ± 0.7 mM in [3]; 3.84 ± 0.39 mM in [4]; 9.74 ± 0.03 mM in assay [5]; 0.71 ± 0.12 mM in assay [6]. Besides, the IC50 turned out to be 16 mM in assay [7] (Homo sapiens, MCF7, 72 h); 16.2 ± 0.56 mM in assay [7]; 7.67 ± 0.61 mM in assay [8]; 2.07 ± 0.03 mM in the assay with PNT1a. For the same molecule, the “RF, resistance factor” value in assay [2] (IC50 (resistant, A2780cisR)/IC50 (sensitive, A2780)) worked out at 0.5. In addition, the “Efficiency to inhibit HDAC activity” value in assay [9] is on record as “moderate inhibitory effect”. The “Change of DNA methylation” value in [10] was “capable of inducing DNA hypermethylation”. For the same molecule, the “Activity of DNMT enzymes” value in assay [11] is given as “enhanced activity of DNMT enzymes”.

The record behind these values is paper PMC5473904, “Epigenetic and antitumor effects of platinum(IV)-octanoato conjugates” (Scientific Reports, 2017).
